In EP0576227A2, “2'-Deoxy-2',2'-difluoro(2,6,8-substituted) purine nucleosides having anti-viral and anti-cancer activity and intermediates” (ELI LILLY AND COMPANY, priority 1992, dated 1993):
Converted amounts (≈) assume the structure as drawn.

Key:
[1] = tested on: HC1 human colon carcinoma; assay: HC1 human colon carcinoma xenograft in mice, tumor weight inhibition; type: in vivo, Nu/Nu CD-1 mice; details: 14 day delay
Text: The HC1 human colon carcinoma xenograft was obtained in 1987 from Drs. Peter and Janet Houghton, St. Jude Children's Hospital, Memphis, TN. The tumor is a moderately well-differentiated adenocarcinoma of the ascending colon [British Journal of Cancer, 37, p 213-223 (1987)]. The first passage tumor was stored in liquid nitrogen using standard techniques. The tumors were maintained in serial passage Nu/Nu CD-1 mice (Charles River Laboratories, Portage, MI.).
The study testing the efficacy of these compounds against HC1 human colon carcinoma was initiated by removing a tumor from passage animals and mincing it into 1 to 3 mm square fragments using sterile techniques. Tumor pieces were checked for sterility using both an Antibiotic Medium 1 and Brain Heart Infusion (Difco; Detroit, MI). Tumor pieces were implanted subcutaneously in the auxilary region of recipient mice by trocar. Drug therapy on the appropriate schedule was initiated 14 days after tumor implantation. Drugs were dissolved in Emulphor for all experiments. All animals were weighed at the beginning and end of drug treatment. Food and water were provided ad libitum. On day 14 after the initiation of therapy, two dimensional measurements (width and length) of all tumors were taken using electronic calipers interfaced to a computer. Tumor weights were calculated from these measurements using the following formula: Tumor Weight (mg) = Tumor Length (mm) X Tumor Width (mm)²/2
For all data, the tumor weight was rounded to the nearest tenth of a gram for analysis. No group is included in the analysis for therapeutic activity in which deaths attributable to drug toxicity exceeded 20 percent of the treated group. Compounds are considered active if more than 60 percent inhibition of tumor growth, as determined by tumor weight, is achieved at maximally tolerated doses.
In Table 2 which follows, Column 1 gives the example number of the compound tested; Column 2, the dose level; Column 3, the route administered; Column 4, the dosage schedule; Column 5, the percent inhibition of the tumor; and Column 6; the toxic deaths observed prior to completion of the study.

[2] = tested on: human leukemia cells (CCRF-CEM cell line); assay: Growth inhibition of human leukemia cells (CCRF-CEM cytotoxicity screen); type: cell-based; details: Homo sapiens, CCRF-CEM
Text: In another aspect, the invention provides a method of treating susceptible neoplasms in mammals comprising administering to a mammal in need of such treatment a pharmaceutically effective amount of a compound of formula (I). […] The treatment contemplated by the present method includes both medical therapeutic and prophylactic treatment, as appropriate. The specific dosage level of the compound administered according to this invention will, of course, be determined by the circumstances surrounding the case, including, for example, the particular compound administered, the route of administration, and the condition being treated. The compounds are effectively administered orally, topically, or parenterally. […] The representative compounds of formula (I) employed in the present invention are cytotoxic as they inhibit the growth of rapidly dividing human leukemia cells (CCRF-CEM cell line). Table 1 below gives the results of testing several compounds representative of formula (I).

[3] = 05 mg/kg, Intra-Peritoneal 0.5 ml, 1,3,5,7 9
[4] = 10 mg/kg, Intra-Peritoneal 0.5 ml, 1,3,5,7 9
[5] = 20 mg/kg, Intra-Peritoneal 0.5 ml, 1,3,5,7 9
[6] = 40 mg/kg, Intra-Peritoneal 0.5 ml, 1,3,5,7 9
[7] = 80 mg/kg, Intra-Peritoneal 0.5 ml, 1,3,5,7,9

CNc1nc(N)nc2c1ncn2[C@@H]1O[C@H](CO)[C@@H](O)C1(F)F [Example 5, 2-deoxy-2,2-difluoro-D-ribofuranosyl-1-β-(2-amino-6-methylaminopurine)]
Percent Inhibition of Tumor [1, 3]: 92% | Toxic Deaths [1, 3]: 0/8 | Percent Inhibition of Tumor [1, 4]: 92% | Toxic Deaths [1, 4]: 0/8 | Percent Inhibition of Tumor [1, 5]: 93% | Toxic Deaths [1, 5]: 0/8 | Percent Inhibition of Tumor [1, 6]: 94% | Toxic Deaths [1, 6]: 1/8 | Percent Inhibition of Tumor [1, 7]: 95% | Toxic Deaths [1, 7]: 0/8 | IC50 [2]: 0.054 µg/mL (≈ 0.171 µM)
